# Test results taken from patent US9844546B2, “Antibody against human HIF hydroxylase” (OXFORD UNIVERSITY INNOVATION LIMITED, priority 2001, dated 2017).
# Where no end group is shown, it is not given here. [ ]: non-standard residue; d: D form. The star is where a group is joined. Biotin = O=C1N[C@H]2[C@H](CS[C@H]2CCCCC(=O)*)N1; Hyp = O=C(O)[C@@H]1C[C@@H](O)CN1
# Experiments:
# C. elegans = assay: Immunoblot of ceHIF (HIF-1) in extracts of treated worms; assay type: in vivo; conditions: 200 μM in liquid media, 6 or 16 hrs
# Protocol: Immunoblots of ceHIF levels in extracts of c. elegans were carried out to monitor regulation by hypoxia and iron chelation. Firstly, the oxygen dependence of protein induction was analysed. Worms were grown on plates in bell jars flushed with air (N), or with oxygen/balance nitrogen having an oxygen concentration of 5%, 1%, 0.5% or 0.1% for 18 hrs. A graded increase in protein level was seen as the oxygen level was reduced below 5% with the highest level of induction at 0.5 and 0.1% oxygen concentration. The time course of protein induction was then studied. Worms were grown in bell jars flushed with a 0.1% oxygen/balance nitrogen mixture for 0, 4, 8, 16 or 24 hrs before preparation of extracts. […] The time course of protein decay on re-oxygenation was then assessed. Worms were grown in bell jars flushed with air (N) or a 0.1% oxygen/balance nitrogen mixture. Extracts were made either immediately, or after 4 and 8 minutes of re-oxygenation. Decay of ceHIF protein was very rapid on re-oxygenation. […] A time course RNAse protection assay showing cehif mRNA levels in worms exposed to 0.1% oxygen/balance nitrogen for 0, 4, 8, 16 and 24 hrs was carried out. No induction of ceHIF mRNA by hypoxia was seen. […] Induction by iron chelation was also studied in C. elegans. […]
# HIF-α/pVHL interaction = assay: Interaction of HIF-1α and pVHL.HA reticulocyte IVTTs, anti-HA co-immunoprecipitation; assay type: biochemical, human; conditions: 100 μM added to the HIF-1α IVTT
# Protocol: ^35S-Methionine labelled […] subunits and pVHL.HA were produced separately by IVTT (in vitro transcription and translation) in reticulocyte lysates. IVTTs were performed under different conditions, mixed, and assayed for interaction by anti-HA co-immunoprecipitation. These in vitro assays allowed analysis of the HIFα/pVHL interaction using the recombinant proteins.
# Labelled HIF-1α and pVHL.HA were generated separately in reticulocyte lysates (IVTT), in the presence or absence of Co (II), desferrioxamine, or Fe(II). Lysates were mixed in various combinations, and interactions assayed by anti-HA immunoprecipitation.
# • 1. G. L. Semenza, Genes Dev 14, 1983-91. (2000). • 2. N. V. Iyer, et al., Genes Dev. 12, 149-162 (1997). • 3. E. Maltepe, J. V. Schmidt, D. Baunoch, C. A. Bradfield, M. C. Simon, Nature 386, 403-407 (1997). • 4. G. L. Wang, B.-H. Jiang, E. A. Rue, G. L. Semenza, Proc. Natl. Acad. Sci. USA 92, 5510-5514 (1995). • 5. S. Salceda, J. Caro, J. Biol. Chem. 272, 22642-22647 (1997). • 6. L. E. Huang, J. Gu, M. Schau, H. F. Bunn, Proc. Natl. Acad. Sci. USA 95, 7987-7992 (1998). • 7. M. S. Wiesener, et al., Blood 92, 2260-2268 (1998). • 8. P. H. Maxwell, et al., Nature 399, 271-275 (1999). • 9. K. Iwai, et al., Proc. Natl. Acad. Sci. USA 96, 12436-12441 (1999). • 10. J. Lisztwan, G. Imbert, C. Wirbelauer, M. Gstaiger, W. Krek, Genes Dev 13, 1822-33 (1999). • 11. M. E. Cockman, et al., J Biol Chem (2000). • 12. M. Ohh, et al., Nat Cell Biol 2, 423-7. (2000). • 13. T. Kamura, et al., Proc Natl Acad Sci USA 97, 10430-5. (2000). • 14. K. Tanimoto, Y. Makino, T. Pereira, L. Poellinger, Embo J 19, 4298-309. (2000). • 15. M. A. Goldberg, S. P. Dunning, H. F. Bunn, Science 242, 1412-1415 (1988). • 16. G. L. Wang, G. L. Semenza, Blood 82, 3610-3615 (1993). • 17. G. L. Semenza, Cell 98, 281-284 (1999). • 18. Hypoxia (<0.1% oxygen) was obtained in a workstation with O2, CO2 and temperature control (Ruskinn Technologies, Leeds, UK). For hypoxic harvest, buffers were preincubated in the chamber overnight. […]
# EGLN-2 and EGLN-3 = assay: Modification and pVHL binding assay with reticulocyte lysate programmed with EGLN-2 or EGLN-3; assay type: biochemical, human; conditions: desferrioxamine 200 μM, cobaltous chloride 200 μM
# From the text: Protein containing HIF-1 sequence (amino acids 549-582) was generated in a reticulocyte in vitro transcription translation reaction in the presence of 100 micromolar desferrioxamine, retrieved and then exposed to […] translates containing the putative enzymes as described above. These proteins contain the critical proline (564) which can be modified by hydroxylation and which enables recognition by von Hippel Lindau tumour suppressor protein (pVHL).
# The modification of the HIF-1 sequence was assayed by the binding of the HIF-1 to radiolabelled pVHL, generated by in vitro transcription and translation of a pcDNA3 vector containing the human wild type pVHL open reading frame in a rabbit reticulocyte lysate in the presence of ^35S-methionine.
# Modification and pVHL binding assays were performed as described above. Rabbit reticulocyte lysate was programmed with pcDNA3 based plasmids containing no insert, an insert encoding the full open reading frame of the human homologue of C. elegans Egl-9 known as EGLN-2, or an insert encoding the full open reading frame of the human homologue known as EGLN-3. Modification was performed in the absence of additives, in the presence of oxalylglycine, oxalylglycine plus 2-oxoglutarate, 200 μM desferrioxamine or 200 μM cobaltous chloride.
# VHL-1 = target: T1, VHL-1 (Caenorhabditis elegans, UniProt Q19213); assay: Peptide blocking of HIF-1 capture by HA.VHL-1 and capture of native VHL-1 by biotinylated peptides; assay type: binding, C. elegans; conditions: for blocking of capture of pretreated HIF-1 by HA.VHL-1: peptide 1 μM
# T1 construct: made in house; host or cells: TNT rabbit reticulocyte lysate, IVTT
# T1 sequence (Q19213 1-174): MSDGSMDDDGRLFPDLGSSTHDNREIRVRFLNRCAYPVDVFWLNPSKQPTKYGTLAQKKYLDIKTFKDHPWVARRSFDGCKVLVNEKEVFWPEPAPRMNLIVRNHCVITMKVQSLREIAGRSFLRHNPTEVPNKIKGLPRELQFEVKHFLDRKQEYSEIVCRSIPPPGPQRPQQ
# Protocol: For peptide blocking experiments peptides (final conc. 1 μM) were pre-incubated with VHL-1 for 15 min before addition to the interaction.
# To test whether hydroxylation of the critical P621 residue in C. elegans HIF-1 could indeed promote binding to VHl-1, we synthesised N-terminal biotinylated peptides corresponding to residues 607-634 of C. elegans HIF-1 that contained either a proline (B28Pro) or a (2S, 4R)-trans-hydroxyproline residue (B28Hyp) at position 621.
# Furthermore. […] Finally, to test the importance of prolyl hydroxylation in regulating C. elegans HIF-1 in vivo we exposed worms to the cell-penetrating prolyl hydroxylase inhibitor, dimethyloxalylglycine.
molecule,measurement,setting,value
"c1ccc(-c2ccccn2)nc1 [2′, 2′ dipyrridyl, reference compound]",ceHIF protein level,C. elegans,striking Induction of ceHIF
CC(=O)N(O)CCCCCNC(=O)CCC(=O)N(O)CCCCCNC(=O)CCC(=O)N(O)CCCCCN [desferrioxamine],capture of HIF-1α by pVHL.HA,HIF-α/pVHL interaction,greatly diminished capture
same,Enzyme activity (modification of HIF-1 to VHL binding form),EGLN-2 and EGLN-3,diminished
"B28Hyp: N-terminal biotinylated peptide, residues 607-634 of C. elegans HIF-1, (2S, 4R)-trans-hydroxyproline at position 621 (Biotin-DDLQWEEPDLSCLA[Hyp]FVDTYDMMQMDEG)",blocking of capture of pretreated HIF-1 by HA.VHL-1,VHL-1,blocked capture
same,capture of native VHL-1 from worm extracts,VHL-1; wild type but not vhl-1 mutant worms,captured immunodetectable native VHL-1
"B28Pro: N-terminal biotinylated peptide, residues 607-634 of C. elegans HIF-1, proline at position 621 (Biotin-DDLQWEEPDLSCLAPFVDTYDMMQMDEG)",blocking of capture of pretreated HIF-1 by HA.VHL-1,VHL-1,not
